Data reported in PubChem BioAssay AID330 (DTP/NCI, 2004).
Where “and” joins values, the source holds several entries; their conditions need not be identical. Identical values can stand only once. Inconclusive results and toxic doses are left out. The calls were made as follows: active = survival T/C of 150% or more; inactive = T/C below 125% in these data.

Test system: P388 leukemia ip, CD2F1 mice, survival T/C
Assay: NCI In Vivo Anticancer Drug Screen. Data for tumor model P388 Leukemia (intraperitoneal) in CD2F1 (CDF1) mice
Settings: endpoint: median survival time, higher = longer survival
Procedure, shortened: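 Mice carrying the transplanted tumor received test compound or vehicle. Survival was recorded in each group, and the value is the treated-group measurement divided by that of the vehicle-treated control group.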

[1] = dose: 60.0 mg/kg/injection, schedule: Q01DX005 (ip), vehicle: saline with Tween-80
[2] = dose: 120.0 mg/kg/injection, schedule: Q01DX005 (ip), vehicle: saline with Tween-80
[3] = dose: 240.0 mg/kg/injection, schedule: Q01DX005 (ip), vehicle: saline with Tween-80
[4] = dose: 50.0 mg/kg/injection, schedule: Q01DX009 (ip), vehicle: Klucel (hydroxypropylcellulose) (HPC)
[5] = dose: 50.0 mg/kg/injection, schedule: Q01DX005 (ip), vehicle: saline with Tween-80
[6] = dose: 100.0 mg/kg/injection, schedule: Q01DX005 (ip), vehicle: saline with Tween-80
[7] = dose: 200.0 mg/kg/injection, schedule: Q01DX005 (ip), vehicle: saline with Tween-80
[8] = dose: 50.0 mg/kg/injection, schedule: Q01DX009 (ip), vehicle: saline with Tween-80
[9] = dose: 100.0 mg/kg/injection, schedule: Q01DX009 (ip), vehicle: saline with Tween-80
[10] = dose: 200.0 mg/kg/injection, schedule: Q01DX009 (ip), vehicle: saline with Tween-80

Measured: T/C

C=C1C2CC[C@H]3C4(C)CCCC(C)(C(=O)O)[C@H]4CCC3(C2)[C@@H]1OC(C)=O (some centres undefined)
inactive: dose: 3.5 mg/kg/injection, schedule: Q01DX005 (ip), vehicle: Klucel (hydroxypropylcellulose) (HPC) 108 % of control | dose: 7.0 mg/kg/injection, schedule: Q01DX005 (ip), vehicle: Klucel (hydroxypropylcellulose) (HPC) 97 % of control | dose: 14.0 mg/kg/injection, schedule: Q01DX005 (ip), vehicle: Klucel (hydroxypropylcellulose) (HPC) 100 % of control | dose: 25.0 mg/kg/injection, schedule: Q01DX005 (ip), vehicle: Klucel (hydroxypropylcellulose) (HPC) 88 % of control | dose: 28.0 mg/kg/injection, schedule: Q01DX005 (ip), vehicle: Klucel (hydroxypropylcellulose) (HPC) 94 % of control | dose: 50.0 mg/kg/injection, schedule: Q01DX005 (ip), vehicle: Klucel (hydroxypropylcellulose) (HPC) 90 % of control | dose: 100.0 mg/kg/injection, schedule: Q01DX005 (ip), vehicle: Klucel (hydroxypropylcellulose) (HPC) 90 % of control

N=C(N)c1ccc(OCCCOc2ccc(C(=N)N)cc2)cc1
inactive: dose: 6.25 mg/kg/injection, schedule: Q01DX005 (ip), vehicle: saline 108 % of control | dose: 12.5 mg/kg/injection, schedule: Q01DX005 (ip), vehicle: saline 117 % of control | dose: 25.0 mg/kg/injection, schedule: Q01DX005 (ip), vehicle: saline 115 % of control

CC(C)(C)c1cc(/C=C2/OC(=O)c3ccccc32)cc(C(C)(C)C)c1O
inactive: dose: 100.0 mg/kg/injection, schedule: Q04DX002 (ip), vehicle: saline 99 % of control | dose: 200.0 mg/kg/injection, schedule: Q04DX002 (ip), vehicle: saline 100 % of control | dose: 400.0 mg/kg/injection, schedule: Q04DX002 (ip), vehicle: saline 96 % of control

CCOC(=O)C1=CC(C)(C)OC1=O
inactive: [1] 99 % of control and 106 % of control | [2] 110 % of control and 118 % of control | [3] 101 % of control and 124 % of control

O=NN(Cc1ccc(Cl)cc1)NC1=NCCN1
inactive: [4] 98 % of control | dose: 100.0 mg/kg/injection, schedule: Q01DX009 (ip), vehicle: Klucel (hydroxypropylcellulose) (HPC) 99 % of control | dose: 200.0 mg/kg/injection, schedule: Q01DX009 (ip), vehicle: Klucel (hydroxypropylcellulose) (HPC) 105 % of control

COC(=O)CC1(O)C=CC(=O)c2ccccc21 (centres undefined)
inactive: dose: 12.5 mg/kg/injection, schedule: Q01DX005 (ip), vehicle: saline with Tween-80 94 % of control | dose: 25.0 mg/kg/injection, schedule: Q01DX005 (ip), vehicle: saline with Tween-80 100 % of control | [5] 109 % of control | [6] 112 % of control

CCn1c2nc(=O)[nH]c(=O)c-2[n+]([O-])c2ccccc21
inactive: dose: 12.5 mg/kg/injection, schedule: Q01DX001 (ip), vehicle: saline with Tween-80 96 % of control | dose: 25.0 mg/kg/injection, schedule: Q01DX001 (ip), vehicle: saline with Tween-80 96 % of control | dose: 50.0 mg/kg/injection, schedule: Q01DX001 (ip), vehicle: saline with Tween-80 96 % of control

CC(=O)OC1COC2OC1C(OC(C)=O)C2OC(C)=O (centres undefined)
inactive: [5] 101 % of control | [6] 104 % of control | [7] 101 % of control

CC1(C)OCC(C2OC3OC(C)(C)OC3C2OP(=O)(N2CC2)N2CC2)O1 (centres undefined)
inactive: [8] 112 % of control | [9] 105 % of control

O=c1[nH]c2ccc(O)cc2o1
inactive: [1] 108 % of control | [2] 95 % of control | [3] 100 % of control

O=C1CCC(c2ccccc2)=NN1
inactive: dose: 50.0 mg/kg/injection, schedule: Q01DX009 (ip), vehicle: saline 100 % of control | dose: 100.0 mg/kg/injection, schedule: Q01DX009 (ip), vehicle: saline 106 % of control | dose: 200.0 mg/kg/injection, schedule: Q01DX009 (ip), vehicle: saline 103 % of control | dose: 400.0 mg/kg/injection, schedule: Q01DX009 (ip), vehicle: saline 97 % of control

O=C(CCl)SCc1ccccc1
inactive: dose: 100.0 mg/kg/injection, schedule: Q04DX003 (ip), vehicle: saline with Tween-80 107 % of control | dose: 200.0 mg/kg/injection, schedule: Q04DX003 (ip), vehicle: saline with Tween-80 99 % of control

CCOC(=O)N1CCc2nc3ccc(Cl)cc3cc21
inactive: dose: 25.0 mg/kg/injection, schedule: Q01DX009 (ip), vehicle: saline with Tween-80 117 % of control | [8] 98 % of control | [9] 99 % of control | [10] 108 % of control

CCn1c2ccc(N)cc2c2c(N)c(-n3cccc3)ccc21
inactive: [5] 100 % of control | [6] 100 % of control | [7] 100 % of control

CCC(c1ccc(CN(C)C)c(O)c1)C(CC)c1ccc(CN(C)C)c(O)c1 (centres undefined)
inactive: [1] 93 % of control | [2] 91 % of control | [3] 102 % of control

O=S(=O)(CCCl)c1ccc2ccccc2c1
inactive: dose: 12.5 mg/kg/injection, schedule: Q01DX009 (ip), vehicle: Klucel (hydroxypropylcellulose) (HPC) 118 % of control and 90 % of control | dose: 25.0 mg/kg/injection, schedule: Q01DX009 (ip), vehicle: Klucel (hydroxypropylcellulose) (HPC) 114 % of control | [4] 106 % of control and 117 % of control

CN1CCC(CNC(=O)CCCCCCCCC(=O)NCC2(c3ccccc3)CCN(C)CC2)(c2ccccc2)CC1
inactive: dose: 0.39 mg/kg/injection, schedule: Q01DX009 (ip), vehicle: saline 100 % of control | dose: 0.78 mg/kg/injection, schedule: Q01DX009 (ip), vehicle: saline 96 % of control | dose: 1.56 mg/kg/injection, schedule: Q01DX009 (ip), vehicle: saline 105 % of control | dose: 3.12 mg/kg/injection, schedule: Q01DX009 (ip), vehicle: saline 111 % of control

COC1=CC(=O)C(C#CCOCc2ccccc2)=CC1=O
inactive: dose: 7.5 mg/kg/injection, schedule: Q01DX005 (ip), vehicle: Klucel (hydroxypropylcellulose) (HPC) 100 % of control | dose: 15.0 mg/kg/injection, schedule: Q01DX005 (ip), vehicle: Klucel (hydroxypropylcellulose) (HPC) 102 % of control | dose: 30.0 mg/kg/injection, schedule: Q01DX005 (ip), vehicle: Klucel (hydroxypropylcellulose) (HPC) 105 % of control

O=[N+]([O-])c1cccc2nc(Cl)ccc12
inactive: dose: 25.0 mg/kg/injection, schedule: Q01DX009 (ip), vehicle: other 93 % of control | dose: 50.0 mg/kg/injection, schedule: Q01DX009 (ip), vehicle: other 93 % of control | dose: 100.0 mg/kg/injection, schedule: Q01DX009 (ip), vehicle: other 98 % of control

CC1(C)CC(OP(=O)(OCCN2CC2)OCCN2CC2)CC(C)(C)N1O
inactive: [8] 107 % of control | [9] 100 % of control | [10] 96 % of control

Cn1nnn(C)c1=NC#N
inactive: dose: 100.0 mg/kg/injection, schedule: Q01DX001 (ip), vehicle: saline 100 % of control | dose: 200.0 mg/kg/injection, schedule: Q01DX001 (ip), vehicle: saline 107 % of control | dose: 400.0 mg/kg/injection, schedule: Q01DX001 (ip), vehicle: saline 100 % of control
